Assay results taken from patent US20250320198A1, “SALT OF ENDOTHELIN A (ETA) RECEPTOR ANTAGONIST COMPOUND, AND PREPARATION METHOD THEREFOR AND MEDICAL USE THEREOF” (SHENZHEN SALUBRIS PHARMACEUTICALS CO., LTD, priority 2022, published 2025).

Columns and labels:
[1] = Research on compound microsome: prototype remaining and transformation to Atrasentan in human liver microsomes (+NADPH); type: in vitro ADME; details: for Prototype remaining quantity (%) Mean: human liver microsome (+NADPH), 37° C.
Description: Human liver microsomes were all purchased from Rild Liver Disease Research (Shanghai) Co., Ltd.
Reagents: dimethyl sulfoxide (DMSO), acetonitrile, formic acid, and propranolol (internal standard) are all commercially available.
Instrument: Thermo Fisher Scientific LC-MS (U300 UPLC, TSQ QUANTUMN ULTRA triple quadrupole mass spectrometer).
A certain amount of compound was precisely weighed and dissolved in DMSO to prepare a 10 mM stock solution, and the stock solution was diluted with a diluent (ACN:H2O=1:1) to a 100 μM working solution, and then diluted with a 0.1 M potassium phosphate buffer solution to a 3 μM administration solution for later use. 75 μL of liver microsomes were taken and added into 925 μL of a 0.1 M potassium phosphate buffer solution to be mixed uniformly to obtain a 1.5 mg/mL liver microsome suspension, and the liver microsome suspension was pre-incubated at 37° C. for 10 minutes. Preparation at 0 o'clock: 15 μL of the above liver microsome suspension was taken and added into a 6 mM NADPH solution, 150 μL of a propranolol acetonitrile solution was added immediately for precipitation, and then 15 μL of the above administration solution was added and mixed uniformly for later use. Preparation of samples at 20 minutes and 60 minutes: 15 μL of the administration solution was taken, 15 μL of the liver microsome suspension and 15 μL of the 6 mM NADPH solution were added and mixed uniformly, and a mixture was incubated at 37° C. for 20 minutes and 60 minutes, respectively. The preparation of the above samples was carried out using dual-pore parallel operation. When the above samples are incubated to the relevant time point, 150 μL of the propranolol acetonitrile solution was added to terminate the reaction. All the above samples were centrifuged at 4000 rpm for 5 minutes, and 100 μL of a supernatant was taken, added into 100 μL of ultrapure water and mixed uniformly for LC-MS/MS analysis. LC-MS/MS detection conditions are as follows:
Chromatographic column: Waters ACQUITY™ PREMIER HSS T3, 50*2.1 mm, 1.8 μm.
(§1) Mobile phase: water (0.1% formic acid)—acetonitrile. Perform gradient elution according to the table below.
An initial 0 o'clock was taken as 100%, a relative residual content of the drug at each time point was calculated, and each time point of Atrasentan was taken as 100% to calculate the relative amount of transformation of the compound in the embodiment to Atrasentan.

[2] = Pharmacokinetic study of compound in rats (Embodiment 13), intragastric administration; type: in vivo; details: SD rats
Excerpt: SD rats: male, 200-300 g, purchased from Beijing Vital River Laboratory Animal Technology Co., Ltd.
Reagents: dimethyl sulfoxide (DMSO), polyethylene glycol 400 (PEG-400), normal saline, heparin, acetonitrile, formic acid, and propranolol (internal standard) are all commercially available.
Instrument: Thermo Fisher Scientific LC-MS/MS (U300 UPLC, TSQ QUANTUMN ULTRA triple quadrupole mass spectrometer).
The compound was weighed and dissolved in a DMSO-PEG-400-normal saline (5:60:35, v/v/v) system. After intragastric administration to rats, 200 μL of venous blood was collected in a sodium-fluoride heparinized EP tube at 15 minutes, 30 minutes, 1 hour, 2 hours, 5 hours, 7 hours, and 24 hours after administration and centrifuged at 12000 rpm for 2 minutes. Plasma was taken and frozen and preserved at −80° C. for testing. A certain amount of samples for test was precisely weighed and dissolved in DMSO to 2 mg/mL as a stock solution. An appropriate amount of compound stock solution was accurately sucked, and diluted by adding acetonitrile to prepare a standard series solution. 20 μL of each of the above standard series solution was accurately sucked, 180 μL of blank plasma was added, and vortex mixing was performed to prepare plasma samples equivalent to plasma concentrations of 1 ng/mL, 3 ng/mL, 5 ng/mL, 10 ng/mL, 30 ng/mL, 100 ng/mL, 300 ng/mL, 1000 ng/mL, and 3000 ng/mL. Dual sample analysis was performed for each concentration to establish a standard curve. 30 μL of plasma was taken, 200 μL of an acetonitrile solution of internal standard propranolol (50 ng/mL) was added, vortex mixing was performed, then 100 μL of purified water was added, vortex mixing was performed again, a mixture was centrifuged at 4000 rpm for 5 minutes, and a supernatant was taken for LC-MS/MS analysis. LC-MS/MS detection conditions are as follows: Chromatographic column: Waters ACQUITY™ PREMIER HSS T3, 50*2.1 mm, 1.8 μm.
as §1
After LC-MS/MS detection of blood drug concentration, WinNonlin 6.1 software was used to calculate pharmacokinetic parameters using a non compartmental model method.

[3] = Study on hygroscopicity by dynamic vapor sorption (DVS); type: physicochemical
Description: Hygroscopicity of sulphate, phosphate, hydrochloride, and oxalate was evaluated using a dynamic vapor sorption (DVS). The test collected percentage changes in mass of samples under a constant temperature condition of 25° C. with changes in humidity.

[4] = Study on stability of salts (chemical stability by HPLC); type: physicochemical

| SMILES | Prototype remaining quantity (%) Mean ([1]; time 0 min (taken as 100%)) [%] | Prototype remaining quantity (%) Mean ([1]; time 20 min) [%] | Prototype remaining quantity (%) Mean ([1]; time 60 min) [%] | other results |
| --- | --- | --- | --- | --- |
| CCCCN(CCCC)C(=O)CN1C[C@H](c2ccc3c(c2)OCO3)[C@@H](C(=O)OC(C)OC(=O)OC[C@H]2COCCO2)[C@@H]1c1ccc(OC)cc1 (stereo partly drawn) [Compound 9, 1-(((((R)-1,4-dioxane-2-yl)methoxy)carbonyl)oxy)ethyl-(2R,3R,4S)-4-(benzo[d][1,3]dioxolane-5-yl)-1-[2-(dibutylamino)-2-oxoethyl]-2-(4-methoxyphenyl)pyrrolidine-3-carboxylate] | 100.0 | 0.1 | 0.0 | – |
| CCCCN(CCCC)C(=O)CN1C[C@H](c2ccc3c(c2)OCO3)[C@@H](C(=O)OC(C)OC(=O)OC2COC2)[C@@H]1c1ccc(OC)cc1 (stereo partly drawn) [Compound 10, 1-((((oxetane-3-yl)oxy)carbonyl)oxy)ethyl-(2R,3R,4S)-4-(benzo[d][1,3]dioxolane-5-yl)-1-[2-(dibutylamino)-2-oxoethyl]-2-(4-methoxyphenyl)pyrrolidine-3-carboxylate] | 100.0 | 0.0 | 0.0 | – |
| CCCCN(CCCC)C(=O)CN1C[C@H](c2ccc3c(c2)OCO3)[C@@H](C(=O)OC(C)OC(=O)OCCO)[C@@H]1c1ccc(OC)cc1 (stereo partly drawn) [Compound 8, 1-(((2-hydroxyethoxy)carbonyl)oxy)ethyl-(2R,3R,4S)-4-(benzo[d][1,3]dioxolane-5-yl)-1-[2-(dibutylamino)-2-oxoethyl]-2-(4-methoxyphenyl)pyrrolidine-3--carboxylate] | 100.0 | 0.04 | 0.03 | – |
| CCCCN(CCCC)C(=O)CN1C[C@H](c2ccc3c(c2)OCO3)[C@@H](C(=O)OCOC(=O)OCC)[C@@H]1c1ccc(OC)cc1 [Compound 1, 1-[(ethoxycarbonyl)oxy]methyl-(2R,3R,4S)-4-(benzo[d][1,3]dioxolane-5-yl)-1-[2-(dibutylamine)-2-oxoethyl]-2-(4-methoxyphenyl)pyrrolidine-3-carboxylate] | 100.0 | 0.5 | 0.7 | – |
| CCCCN(CCCC)C(=O)CN1C[C@H](c2ccc3c(c2)OCO3)[C@@H](C(=O)OC(C)OC(=O)OC(C)C)[C@@H]1c1ccc(OC)cc1 (stereo partly drawn) [Compound 3, 1-[(isopropoxycarbonyl)oxy]ethyl-(2R,3R,4S)-4-(benzo[d][1,3]dioxolane-5-yl)-1-[2-(dibutylamino)-2-oxoethyl]-2-(4-methoxyphenyl)pyrrolidine-3-carboxylate] | 100.0 | 0.04 | 0.06 | Absorption after intragastric administration compared with Atrasentan (in words) [2]: better than that of Atrasentan; Exposure level in rats compared with the same dosage of Atrasentan (in words) [2]: higher than those of the same dosage of Atrasentan; Conversion into Atrasentan in human microsomes (in words) ([1]; human liver microsomes): fully converted into Atrasentan |
| CCCCN(CCCC)C(=O)CN1C[C@H](c2ccc3c(c2)OCO3)[C@@H](C(=O)OC(C)OC(=O)OCCNC)[C@@H]1c1ccc(OC)cc1 (stereo partly drawn) [Compound 5, 1-(((2-(methylamino)ethoxy)carbonyl)oxy)ethyl-(2R,3R,4S)-4-(benzo[d][1,3]dioxolane-5-yl)-1-[2-(dibutylamino)-2-oxoethyl]-2-(4-methoxyphenyl)pyrrolidine-3-carboxylate] | 100.0 | 0 | 0 | – |
| CCCCN(CCCC)C(=O)CN1C[C@H](c2ccc3c(c2)OCO3)[C@@H](C(=O)OC(C)OC(=O)OC(C)C)[C@@H]1c1ccc(OC)cc1.O=C(O)C(=O)O (some centres unmarked) [Oxalate] | – | – | – | Hygroscopicity (in words) ([3]; 25° C.): lower hygroscopicity; Vapor sorption ([3]; 25° C./80% RH): 0.96%; Stability (in words) ([4]; 25° C./60% RH and 40° C./75% RH, one week): good stability; Purity (area %) ([4]; 25° C./60% RH, one week): 99.39 area %; Purity (area %) ([4]; 40° C./75% RH, one week): 98.52 area %; Purity (area %) ([4]; Start): 99.56 area % |
| CCCCN(CCCC)C(=O)CN1C[C@H](c2ccc3c(c2)OCO3)[C@@H](C(=O)OC(C)OC(=O)OC[C@@H](O)CO)[C@@H]1c1ccc(OC)cc1 (stereo partly drawn) [Compound 6, 1-((((S)-2,3-dihydroxypropoxy)carbonyl)oxy)ethyl-(2R,3R,4S)-4-(benzo[d][1,3]dioxolane-5-yl)-1-[2-(dibutylamino)-2-oxoethyl]-2-(4-methoxyphenyl)pyrrolidine-3-carboxylate] | 100.0 | 0.0 | 0.7 | – |
| CCCCN(CCCC)C(=O)CN1C[C@H](c2ccc3c(c2)OCO3)[C@@H](C(=O)OC(C)OC(=O)OCC)[C@@H]1c1ccc(OC)cc1 (stereo partly drawn) [Compound 2, 1-[(ethoxycarbonyl)oxy]ethyl(2R,3R,4S)-4-(benzo[d][1,3]dioxolane-5-yl)-1-[2-(dibutylamino)-2-oxoethyl]-2-(4-methoxyphenyl)pyrrolidine-3-carboxylate] | 100.0 | 67.8 | 1.6 | – |
| CCCCN(CCCC)C(=O)CN1C[C@H](c2ccc3c(c2)OCO3)[C@@H](C(=O)OC(C)OC(=O)OC[C@@H]2COCCO2)[C@@H]1c1ccc(OC)cc1 (stereo partly drawn) [Compound 11, 1-(((((S)-1,4-dioxane-2-yl)methoxy)carbonyl)oxy)ethyl-(2R,3R,4S)-4-(benzo[d][1,3]dioxolane-5-yl)-1-[2-(dibutylamino)-2-oxoethyl]-2-(4-methoxyphenyl)pyrrolidine-3-carboxylate] | 100.0 | 0.5 | 0.0 | – |
| CCCCN(CCCC)C(=O)CN1C[C@H](c2ccc3c(c2)OCO3)[C@@H](C(=O)O)[C@@H]1c1ccc(OC)cc1 [Atrasentan, (2R,3R,4S)-4-(benzo[d][1,3]dioxolan-5-yl)-1-[2-(dibutylamino)-2-oxoethyl]-2-(4-methoxyphenyl)pyrrolidine-3-carboxylic acid, reference compound] | 100.0 | 83.3 | 50.3 | – |
| CCCCN(CCCC)C(=O)CN1C[C@H](c2ccc3c(c2)OCO3)[C@@H](C(=O)OC(C)OC(=O)OC)[C@@H]1c1ccc(OC)cc1 (stereo partly drawn) [Compound 4, 1-[(methoxycarbonyl)oxy]ethyl-(2R,3R,4S)-4-(benzo[d][1,3]dioxolane-5-yl)-1-[2-(dibutylamino)-2-oxoethyl]-2-(4-methoxyphenyl)pyrrolidine-3-carboxylate] | 100.0 | 0 | 0 | Absorption after intragastric administration compared with Atrasentan (in words) [2]: better than that of Atrasentan; Exposure level in rats compared with the same dosage of Atrasentan (in words) [2]: higher than those of the same dosage of Atrasentan |
